Tests used:
HCT-116 cells = test: MTT antiproliferative assay, HCT-116; type: cell-based, human; details: Homo sapiens, mean ± SEM of three experiments; for inhibition at 10 µM: HCT-116, HCT116, 10 µM, read-out: % Growth inhibition HCT116 10 µM; for inhibition at 100 µM: HCT-116, HCT116, 100 µM, read-out: % Growth inhibition HCT116 100 µM
Protocol: (§1) Encouraged by the favourable selectivity profile of ureidocoumarins 5a–p and amidocoumarins 7a–c towards hCA IX and hCA XII, they were further examined for their prospective antiproliferative activity against human colorectal (HCT-116) and breast (MCF-7) cancer cell lines, adopting the MTT assay.
(§2) The evaluation of anticancer activity of the target compounds was conducted by MTT assay adopting the literature procedure.

hCA XII = hCA XII (Homo sapiens, UniProt O43570); test: stopped-flow CO2 hydrase assay, hCA XII; type: biochemical; details: incubation time 6 h, mean of three experiments
Protocol: (§3) The target coumarins 5a–p and 7a–c were examined for their CA inhibitory actions towards the ubiquitous CA I and II (cytosolic) as well as the tumour-associated CA IX and XII isozymes by the use of a stopped-flow CO2 hydrase assay, using acetazolamide (AZA) as a reference compound.
(§4) The experimental procedures utilised for CA inhibitory assay of the target compounds were carried out as described earlier, and presented in the Supplementary Materials.

MCF-7 cells = test: MTT antiproliferative assay, MCF-7; type: cell-based, human; details: Homo sapiens, mean ± SEM of three experiments; for inhibition at 10 µM: MCF7, MCF7, 10 µM, read-out: % Growth inhibition MCF7 10 µM; for inhibition at 100 µM: MCF7, MCF7, 100 µM, read-out: % Growth inhibition MCF7 100 µM
Protocol: as §1, §2

hCA IX = hCA IX (Homo sapiens, UniProt Q16790); test: stopped-flow CO2 hydrase assay, hCA IX; type: biochemical; details: incubation time 6 h, mean of three experiments
Protocol: as §3, §4

hCA II = hCA II (Homo sapiens, UniProt P00918); test: stopped-flow CO2 hydrase assay, hCA II; type: biochemical; details: incubation time 6 h, mean of three experiments
Protocol: as §3, §4

hCA I = hCA I (Homo sapiens, UniProt P00915); test: stopped-flow CO2 hydrase assay, hCA I; type: biochemical; details: incubation time 6 h, mean of three experiments
Protocol: as §3, §4

Sequence of hCA I (P00915 whole entry): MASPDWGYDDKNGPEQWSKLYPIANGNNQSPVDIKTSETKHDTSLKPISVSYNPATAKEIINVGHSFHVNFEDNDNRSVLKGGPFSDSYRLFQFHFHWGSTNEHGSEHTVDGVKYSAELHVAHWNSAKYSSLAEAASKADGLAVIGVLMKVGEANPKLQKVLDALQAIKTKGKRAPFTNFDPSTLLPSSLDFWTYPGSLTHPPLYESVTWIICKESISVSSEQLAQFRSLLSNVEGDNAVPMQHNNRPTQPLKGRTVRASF
Sequence of hCA XII (O43570 25-354): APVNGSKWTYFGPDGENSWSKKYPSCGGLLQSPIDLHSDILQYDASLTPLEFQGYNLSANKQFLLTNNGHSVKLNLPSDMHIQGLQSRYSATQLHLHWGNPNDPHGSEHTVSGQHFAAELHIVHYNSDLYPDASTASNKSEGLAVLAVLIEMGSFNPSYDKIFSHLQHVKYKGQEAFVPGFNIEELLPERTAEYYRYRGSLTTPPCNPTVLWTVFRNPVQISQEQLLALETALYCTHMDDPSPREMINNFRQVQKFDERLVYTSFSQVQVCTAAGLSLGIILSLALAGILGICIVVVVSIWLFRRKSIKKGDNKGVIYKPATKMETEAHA

Compound	inhibition at 10 µM (HCT-116 cells) [%]	inhibition at 100 µM (HCT-116 cells) [%]	Ki (hCA XII) [nM]	inhibition at 10 µM (MCF-7 cells) [%]	inhibition at 100 µM (MCF-7 cells) [%]	Ki (hCA IX) [nM]	Ki (hCA II) [nM]	Ki (hCA I) [nM]	melting point [°C]
O=C(Nc1ccc2oc(=O)ccc2c1)Nc1c(Br)cc(F)cc1Br [Compound 5p, 1-(2,6-Dibromo-4-fluorophenyl)-3-(2-oxo-2H-chromen-6-yl)urea]	14.1 ± 3	75.2 ± 5.8	50.4	21.4 ± 3	79.5 ± 2.4	72.8	> 100000	> 100000	
O=C(Nc1ccc2oc(=O)ccc2c1)c1cc(F)cc(F)c1 [Compound 7c, 3,5-Difluoro-N-(2-oxo-2H-chromen-6-yl)benzamide]	21.8 ± 3	52 ± 5.1	40.5	21.1 ± 3.3	21.4 ± 4.7	61	> 100000	> 100000	301 to 303
O=C(Nc1ccc(F)c(Cl)c1)Nc1ccc2oc(=O)ccc2c1 [Compound 5h, 1-(3-Chloro-4-fluorophenyl)-3-(2-oxo-2H-chromen-6-yl)urea]	11.9 ± 1.5	92.3 ± 1.2	10.3	16.9 ± 5.3	91.2 ± 1	24.1	> 100000	> 100000	232 to 233
Cc1cccc(Cl)c1NC(=O)Nc1ccc2oc(=O)ccc2c1 [Compound 5o, 1-(2-Chloro-6-methylphenyl)-3-(2-oxo-2H-chromen-6-yl)urea]	9.7 ± 4	78.6 ± 3.7	13.8	30.3 ± 1.5	72.8 ± 5.5	19.2	> 100000	> 100000	
Cc1cc(Cl)ccc1NC(=O)Nc1ccc2oc(=O)ccc2c1 [Compound 5n, 1-(4-Chloro-2-methylphenyl)-3-(2-oxo-2H-chromen-6-yl)urea]	4.9 ± 2.5	20.5 ± 3.5	43.1	16.7 ± 4.9	19.9 ± 1.2	28.4	> 100000	> 100000	
O=C(Nc1ccc2oc(=O)ccc2c1)c1cc(C(F)(F)F)cc(C(F)(F)F)c1 [Compound 7b, N-(2-Oxo-2H-chromen-6-yl)-3,5-bis(trifluoromethyl)benzamide]	19.6 ± 2.4	76 ± 2.5	37.5	11.3 ± 4	62.9 ± 6.4	55.6	> 100000	> 100000	240 to 241
O=C(Nc1ccc(F)cc1)Nc1ccc2oc(=O)ccc2c1 [Compound 5c, 1-(4-Fluorophenyl)-3-(2-oxo-2H-chromen-6-yl)urea]	10.9 ± 1.6	31.3 ± 4.6	40.2	9.5 ± 4.2	13.5 ± 4.3	41.5	> 100000	> 100000	249 to 250
Cc1cc(C)cc(NC(=O)Nc2ccc3oc(=O)ccc3c2)c1 [Compound 5k, 1-(3,5-Dimethylphenyl)-3-(2-oxo-2H-chromen-6-yl)urea]	14.5 ± 2.7	87.4 ± 1.8	27.4	33.2 ± 3.2	66.7 ± 5	42.9	> 100000	> 100000	238 to 239
O=C(Nc1cccc(C(F)(F)F)c1)Nc1ccc2oc(=O)ccc2c1 [Compound 5a, 1-(2-Oxo-2H-chromen-6-yl)-3-(3-(trifluoromethyl)phenyl)urea]	8 ± 4.8	21.9 ± 4.6	26.2	3.7 ± 1.9	34.7 ± 4.4	45.9	> 100000	> 100000	252 to 254

Source: publication PMC9897768, “Discovery of new 6-ureido/amidocoumarins as highly potent and selective inhibitors for the tumour-relevant carbonic anhydrases IX and XII” (Journal of Enzyme Inhibition and Medicinal Chemistry, 2023)
